# Patent publication US9802944B2, “Bicyclic compounds as autotaxin (ATX) and lysophosphatidic acid (LPA) production inhibitors” (Hoffmann-La Roche Inc., priority 2014, dated 2017)
# Target: ATX (human His-tagged) (Homo sapiens (Human), UniProt Q13822)
# Assay: Human ATX enzyme inhibition assay (fluorescence quenching, MR121 substrate)
# Assay type: biochemical
# Settings: 30 nM ATX, 1 μM MR121 substrate, 30° C., pH 8.0
# Method: Production of Human Full Length ATX, with and without his Tag
# Autotaxin (ATX-ENPP2) Cloning:
# cDNA was prepared from commercial human hematopoietic cells total RNA and used as template in overlapping PCR to generate a full length human ENPP2 ORF with or without a 3′-6×His tag. These full length inserts were cloned into the pcDNA3.1V5-His TOPO (Invitrogen) vector. The DNA sequences of several single clones were verified. The DNA from a correct full length clone was used to transfect Hek293 cells for verification of protein expression. […] ATX Fermentation: Recombinant protein was produced by large-scale transient transfection in 20 L controlled stirred tank bioreactors (Sartorius). During cell growth and transfection, temperature, stirrer speed, pH and dissolved oxygen concentration were maintained at 37° C., 120 rpm, 7.1 and 30% DO, respectively. […] Expression was analyzed by Western Blot, enzymatic assay and/or analytical IMAC chromatography. After cooling the cell suspension to 4° C. in a flow-through heat exchanger, cell separation and sterile filtration of supernatant was performed by filtration through Zeta Plus 60M02 E16 (Cuno) and Sartopore 2 XLG (Sartorius) filter units. The supernatant was stored at 4° C. prior to purification. ATX Purification: 20 liter of culture supernatant were conditioned for ultrafiltration by adding Brij 35 to a final concentration of 0.02% and by adjusting the pH to 7.0 using 1 M HCl. Then the supernatant was first microfiltered through a 0.2 μm Ultran-Pilot Open Channel PES filter (Whatman) and afterwards concentrated to 1 liter through an Ultran-Pilot Screen Channel PES filter with 30 kDa MWCO (Whatman). Prior to IMAC chromatography, NiSO4 was added to a final concentration of 1 mM. The cleared supernatant was then applied to a HisTrap column (GE Healthcare) previously equilibrated in 50 mM Na2HPO4 pH 7.0, 0.5 M NaCl, 10% glycerol, 0.3% CHAPS, 0.02% NaN3. The column was washed stepwise with the same buffer containing 20 mM, 40 mM and 50 mM imidazole, respectively. The protein was subsequently eluted using a linear gradient to 0.5 M imidazole in 15 column volumes. ATX containing fractions were pooled and concentrated using an Amicon cell equipped with a 30 kDa PES filter membrane. The protein was further purified by size exclusion chromatography on Superdex S-200 prep grade (XK 26/100) (GE Healthcare) in 20 mM BICINE pH 8.5, 0.15 M NaCl, 10% glycerol, 0.3% CHAPS, 0.02% NaN3. […] The protein was stored at −80° C. […] 10 μL of MR121 substrate solution was added (1 μM final concentration), mixed 30 times and then incubated for 15 minutes at 30° C.
row,SMILES,IC50 [nM]
1,"CN(C)c1cc(C(=O)N2C[C@@H]3CN(C(=O)c4ccc5[nH]nnc5c4)C[C@H]3C2)cc(OCC2CCOCC2)n1 [Example 2.23, ((3aS,6aS)-5-(1H-benzo[d][1,2,3]triazole-5-carbonyl)hexahydropyrrolo[3,4-c]pyrrol-2(1H)-yl)(2-(dimethylamino)-6-((tetrahydro-2H-pyran-4-yl)methoxy)pyridin-4-yl)methanone]",5
2,"O=C(c1cnc(OC2CCOC2)c(C2CC2)c1)N1C[C@@H]2CN(C(=O)c3ccc4[nH]nnc4c3)C[C@H]2C1 (stereo partly drawn) [Example 2.05, ((3aS,6aS)-5-(1H-benzo[d][1,2,3]triazole-5-carbonyl)hexahydropyrrolo[3,4-c]pyrrol-2(1H)-yl)(5-cyclopropyl-6-(tetrahydrofuran-3-yloxy)pyridin-3-yl)methanone]",10.5
3,"O=C(c1cnc(OC2CCCOC2)c(C2CC2)c1)N1C[C@@H]2CN(C(=O)c3ccc4[nH]nnc4c3)C[C@H]2C1 (stereo partly drawn) [Example 2.06, ((3aS,6aS)-5-(1H-benzo[d][1,2,3]triazole-5-carbonyl)hexahydropyrrolo[3,4-c]pyrrol-2(1H)-yl)(5-cyclopropyl-6-(tetrahydro-2H-pyran-3-yloxy)pyridin-3-yl)methanone]",4.5
4,"O=C(c1ccc2[nH]nnc2c1)N1CC[C@@H]2CN(C(=O)c3cc(OCC4CCOCC4)nc(C4CC4)c3)C[C@@H]2CC1 [Example 2.22, ((3aR,8aS)-6-(1H-benzo[d][1,2,3]triazole-5-carbonyl)octahydropyrrolo[3,4-d]azepin-2(1H)-yl)(2-cyclopropyl-6-((tetrahydro-2H-pyran-4-yl)methoxy)pyridin-4-yl)methanone]",10
5,"O=C(c1cc(OCC2CCOCC2)nc(C2CC2)c1)N1C[C@@H]2CN(Cc3ccc4[nH]nnc4c3)C[C@H]2C1 [Example 2.18, ((3aS,6aS)-5-((1H-benzo[d][1,2,3]triazol-5-yl)methyl)hexahydropyrrolo[3,4-c]pyrrol-2(1H)-yl)(2-cyclopropyl-6-((tetrahydro-2H-pyran-4-yl)methoxy)pyridin-4-yl)methanone]",10
6,"O=C(c1cc(Cl)nc(OCC2CCOCC2)c1)N1C[C@@H]2CN(C(=O)c3ccc4[nH]nnc4c3)C[C@H]2C1 [Example 2.20, ((3aS,6aS)-5-(1H-benzo[d][1,2,3]triazole-5-carbonyl)hexahydropyrrolo[3,4-c]pyrrol-2(1H)-yl)(2-chloro-6-((tetrahydro-2H-pyran-4-yl)methoxy)pyridin-4-yl)methanone]",40
7,"O=C(c1cc(OCC2CCOCC2)nc(C2CC2)c1)N1C[C@@H]2CN(C(=O)c3ccc4[nH]nnc4c3)C[C@H]2C1 [Example 2.01, ((3aS,6aS)-5-(1H-benzo[d][1,2,3]triazole-5-carbonyl)hexahydropyrrolo[3,4-c]pyrrol-2(1H)-yl)(2-cyclopropyl-6-((tetrahydro-2H-pyran-4-yl)methoxy)pyridin-4-yl)methanone]",3
8,"NS(=O)(=O)c1ccc(C(=O)N2C[C@H]3CN(C(=O)c4cc(OCC5CCOCC5)nc(C5CC5)c4)C[C@@H]3C2)cc1F [Example 1.04, 4-((3aR,6aR)-5-(2-cyclopropyl-6-((tetrahydro-2H-pyran-4-yl)methoxy)isonicotinoyl)octahydropyrrolo[3,4-c]pyrrole-2-carbonyl)-2-fluorobenzenesulfonamide]",8
9,"O=C(c1cnc(OC2CCOCC2)c(C2CC2)c1)N1C[C@@H]2CN(Cc3ccc4[nH]c(=O)oc4c3)C[C@H]2C1 [Example 4, 6-(((3aS,6aS)-5-(5-Cyclopropyl-6-(tetrahydro-2H-pyran-4-yloxy)nicotinoyl)hexahydropyrrolo[3,4-c]pyrrol-2(1H)-yl)methyl)benzo[d]oxazol-2(3H)-one]",19
10,"O=C(c1cc(OCC2CCOCC2)nc(C2CC2)c1)N1CC[C@@H]2CN(C(=O)c3ccc4[nH]c(=O)oc4c3)C[C@@H]2CC1 [Example 3.02, 6-((3aR,8aS)-6-(2-cyclopropyl-6-((tetrahydro-2H-pyran-4-yl)methoxy)isonicotinoyl)decahydropyrrolo[3,4-d]azepine-2-carbonyl)benzo[d]oxazol-2(3H)-one]",25
11,"O=C(c1cnc(NC2CCOCC2)c(C2CC2)c1)N1C[C@@H]2CN(C(=O)[C@@H]3CCc4[nH]nnc4C3)C[C@H]2C1 [Example 2.11, ((3aS,6aS)-5-(5-cyclopropyl-6-(tetrahydro-2H-pyran-4-ylamino)nicotinoyl)hexahydropyrrolo[3,4-c]pyrrol-2(1H)-yl)((R)-4,5,6,7-tetrahydro-1H-benzo[d][1,2,3]triazol-5-yl)methanone]",9
12,"O=C(c1ccc(OC2CCOC2)c(C2CC2)c1)N1C[C@@H]2CN(C(=O)c3ccc4[nH]nnc4c3)C[C@H]2C1 (stereo partly drawn) [Example 2.03, ((3aR,6aR)-5-(1H-benzo[d][1,2,3]triazole-5-carbonyl)hexahydropyrrolo[3,4-c]pyrrol-2(1H)-yl)(3-cyclopropyl-4-(tetrahydrofuran-3-yloxy)phenyl)methanone]",10
13,"O=C(c1cc(OCC2CCOCC2)nc(C2CC2)c1)N1C[C@@H]2CN(Cc3ccc4[nH]c(=O)oc4c3)C[C@H]2C1 [Example 2.24, 6-(((3aS,6aS)-5-(2-cyclopropyl-6-((tetrahydro-2H-pyran-4-yl)methoxy)isonicotinoyl)hexahydropyrrolo[3,4-c]pyrrol-2(1H)-yl)methyl)benzo[d]oxazol-2(3H)-one]",11
14,"O=C(c1cnc(OC2CCOCC2)c(C2CC2)c1)N1C[C@@H]2CN(C(=O)c3ccc4[nH]nnc4c3)C[C@H]2C1 [Example 2.07, ((3aS,6aS)-5-(1H-benzo[d][1,2,3]triazole-5-carbonyl)hexahydropyrrolo[3,4-c]pyrrol-2(1H)-yl)(5-cyclopropyl-6-(tetrahydro-2H-pyran-4-yloxy)pyridin-3-yl)methanone]",10
15,"CN(C)c1cc(C(=O)N2C[C@@H]3CN(C(=O)[C@@H]4CCc5[nH]nnc5C4)C[C@H]3C2)cc(OCC2CCOCC2)n1 [Example 2.25, ((3aS,6aS)-5-(2-(dimethylamino)-6-((tetrahydro-2H-pyran-4-yl)methoxy)isonicotinoyl)hexahydropyrrolo[3,4-c]pyrrol-2(1H)-yl)((R)-4,5,6,7-tetrahydro-1H-benzo[d][1,2,3]triazol-5-yl)methanone]",17
16,"O=C(c1cc(OCC2CCOCC2)cc(C2CC2)c1)N1C[C@@H]2CN(C(=O)c3ccc4[nH]nnc4c3)C[C@H]2C1 [Example 2.29, ((3aS,6aS)-5-(1H-benzo[d][1,2,3]triazole-5-carbonyl)hexahydropyrrolo[3,4-c]pyrrol-2(1H)-yl)(3-cyclopropyl-5-((tetrahydro-2H-pyran-4-yl)methoxy)phenyl)methanone]",7
17,"O=C(c1cc(OCC2CCCOC2)nc(C2CC2)c1)N1C[C@@H]2CN(Cc3ccc4[nH]nnc4c3)C[C@H]2C1 (stereo partly drawn) [Example 2.19, ((3aS,6aS)-5-((1H-benzo[d][1,2,3]triazol-5-yl)methyl)hexahydropyrrolo[3,4-c]pyrrol-2(1H)-yl)(2-cyclopropyl-6-((tetrahydro-2H-pyran-3-yl)methoxy)pyridin-4-yl)methanone]",10
